# Data published in the PolyMetriX glass transition set.
# ± gives the standard deviation of the reports.
row,SMILES,glass transition temperature
1,*c1nc(C(F)(F)F)nc(C(F)(OC(F)(F)C(F)(F)C(F)(F)C(F)(F)C(F)(F)C(F)(F)OC(*)(F)C(F)(F)F)C(F)(F)F)n1 (repeat unit) [Perfluoropolymer 1],-13.6 ± 0.7 °C
2,*CC(*)c1ccccc1CC (repeat unit) [Poly(o-ethyl styrene) ],102 ± 1.4 °C

# Remark: another data set of the same source
row,SMILES,glass transition temperature
1,*c1cc2c(OCC(CC)CCCC)c3sc(-c4sc(*)c5c(F)c(C(=O)OCC(CC)CCCC)sc45)cc3c(OCC(CC)CCCC)c2s1 (repeat unit),40.00 °C
2,*c1ccc(-c2ccc(OCCCCCC)c(-c3cc(*)ccc3OCCCCCC)c2)cc1 (repeat unit),117.00 °C
3,*c1ccc(-c2sc(-c3c(F)c(F)c(-c4cc(CC(CCCCCCCC)CCCCCCCCCC)c(-c5ccc(*)s5)s4)c4nsnc34)cc2CC(CCCCCCCC)CCCCCCCCCC)s1 (repeat unit),28.00 °C
4,*c1ccc(-c2ccc(OCCCCCCCC)c(-c3cc(*)ccc3OCCCCCCCC)c2)cc1 (repeat unit),87.00 °C
5,*c1ccc(N(c2ccc(-c3ccc4c(c3)C(CCCCCCCC)(CCCCCCCC)c3cc(*)ccc3-4)cc2)c2ccc(C(C)CC)cc2)cc1 (repeat unit),140.00 °C

# Now from value to compound:
row,glass transition temperature,SMILES
1,74.00 °C,*c1ccc(-c2ccc(-c3cc4c5c(c(*)cc6c5c3C(=O)N(CC(CCCCCCCC)CCCCCCCCCC)C6=O)C(=O)N(CC(CCCCCCCC)CCCCCCCCCC)C4=O)s2)s1 (repeat unit)
2,16.00 °C,*c1ccc2c(c1)C(CCCCCCCCCCCC)(CCCCCCCCCCCC)c1cc(*)ccc1-2 (repeat unit)
3,5.00 °C,*c1cc(CCCCCCCCCCCCCC)c(-c2sc(-c3cc4sc(*)cc4s3)cc2CCCCCCCCCCCCCC)s1 (repeat unit)
4,79.00 °C,*c1ccc2c(c1)C(CCCCCCCC)(CCCCCCCC)c1cc(-c3sc(-c4ccc(-c5cc(CCCCCC)c(*)s5)c5nsnc45)cc3CCCCCC)ccc1-2 (repeat unit)
5,113.00 °C,*C=Cc1cc(OC)c(C=Cc2cc(OC)c(*)cc2OC)cc1OCC(CC)CCCC (repeat unit)

# Remark: another data set of the same source
row,SMILES,glass transition temperature
1,*Sc1cccc2c1C(=O)N(c1cc(Cc3ccc(N4C(=O)c5cccc(*)c5C4=O)c(C)c3)ccc1C)C2=O (repeat unit),274.00 °C
2,*c1ccc2c(c1)C(=O)N(c1cc(N3C(=O)c4ccc(*)cc4C3=O)cc(C(F)(F)F)c1)C2=O (repeat unit),329.00 °C
3,*Oc1ccc(C(c2ccc(Oc3ccc4c(c3)C(=O)N(CCCCN3C(=O)c5ccc(*)cc5C3=O)C4=O)cc2)(C(F)(F)F)C(F)(F)F)cc1 (repeat unit),180.00 °C
4,*c1ccc(P(=O)(c2ccccc2)c2ccc(-n3c(=O)c4cc5c(=O)n(*)c(=O)c5cc4c3=O)cc2)cc1 (repeat unit),425.00 °C
5,*c1cccc2c1C(=O)N(c1ccc(C3(c4ccc(N5C(=O)c6cccc(*)c6C5=O)c(C)c4)c4ccccc4-c4ccccc43)cc1C)C2=O (repeat unit),313.00 ± 2.8 °C
6,*Oc1cccc(Oc2ccc(Oc3ccc4c(c3)C(=O)N(c3ccc(Oc5cccc(Oc6ccc(N7C(=O)c8ccc(*)cc8C7=O)cc6)c5)cc3)C4=O)cc2)c1 (repeat unit),184.00 °C
7,*C(=O)Nc1ccc2ccccc2c1-c1c(NC(=O)c2ccc3c(c2)C(=O)N(c2ccc(Oc4ccc(N5C(=O)c6ccc(*)cc6C5=O)cc4)cc2)C3=O)ccc2ccccc12 (repeat unit),287.80 °C
8,*Oc1cccc(Sc2ccc(Oc3cccc4c3C(=O)N(c3ccc(Oc5cccc(Oc6ccc(N7C(=O)c8cccc(*)c8C7=O)cc6)c5)cc3)C4=O)cc2)c1 (repeat unit),230.00 °C
9,*Sc1ccc2c(c1)C(=O)N(c1ccc(Oc3ccc(N4C(=O)c5cccc(*)c5C4=O)cc3)cc1)C2=O (repeat unit),267.50 ± 8.4 °C
10,*Oc1ccc2c(c1)C(=O)N(c1cccc(C(=O)c3cccc(N4C(=O)c5ccc(*)cc5C4=O)c3)c1)C2=O (repeat unit),239.00 ± 4 °C
11,*Oc1cccc(Oc2ccc(Oc3cccc4c3C(=O)N(c3ccc(Oc5cccc(Oc6ccc(N7C(=O)c8cccc(*)c8C7=O)cc6)c5)cc3)C4=O)cc2)c1 (repeat unit),198.00 °C
12,*C1=C(Cl)C(=O)N(c2ccc(Cc3ccc(N4C(=O)C(Cl)=C(Oc5ccc(*)cc5)C4=O)cc3)cc2)C1=O (repeat unit),192.00 °C
13,*C(=O)c1cccc(Cc2ccc3c(c2)C(=O)N(c2cc(N4C(=O)c5ccc(*)cc5C4=O)cc(C(F)(F)F)c2)C3=O)c1 (repeat unit),253.00 °C
14,*Oc1cccc2c1C(=O)N(c1cccc(C(=O)c3cccc(N4C(=O)c5cccc(*)c5C4=O)c3)c1)C2=O (repeat unit),234.00 °C
15,*Oc1ccc2c(c1)C(=O)N(c1ccc(Sc3ccc(N4C(=O)c5ccc(*)cc5C4=O)cc3)cc1)C2=O (repeat unit),269.00 °C
16,*Oc1cccc(Sc2ccc(Oc3ccc4c(c3)C(=O)N(c3cccc(N5C(=O)c6ccc(*)cc6C5=O)c3)C4=O)cc2)c1 (repeat unit),209.00 °C
17,*C(=O)c1ccc2c(c1)C(=O)N(c1ccc(Oc3cccc(N4C(=O)c5ccc(*)cc5C4=O)c3)cc1)C2=O (repeat unit),252.00 °C
18,*c1cc(N2C(=O)c3ccc(-c4ccc5c(c4)C(=O)N(*)C5=O)cc3C2=O)ccc1OCC(F)(F)C(F)(F)C(F)(F)F (repeat unit),300.00 °C
19,*Oc1ccc(Sc2ccc(Oc3ccc4c(c3)C(=O)N(c3cc(N5C(=O)c6ccc(*)cc6C5=O)cc(C(F)(F)F)c3)C4=O)cc2)cc1 (repeat unit),218.00 °C
20,*Sc1ccc2c(c1)C(=O)N(c1ccc(Oc3ccc4ccccc4c3-c3c(Oc4ccc(N5C(=O)c6ccc(*)cc6C5=O)cc4C(F)(F)F)ccc4ccccc34)c(C(F)(F)F)c1)C2=O (repeat unit),273.00 °C
21,*c1cc(N2C(=O)c3ccc(-c4ccc5c(c4)C(=O)N(*)C5=O)cc3C2=O)ccc1OCC(F)(F)C(F)(F)C(F)(F)C(F)(F)C(F)(F)C(F)(F)C(F)(F)C(F)(F)C(F)(F)C(F)(F)F (repeat unit),230.00 °C
22,*c1ccc2c(c1)C(=O)N(c1ccc(-c3ccc(N4C(=O)c5ccc(C(*)(C(F)(F)F)C(F)(F)F)cc5C4=O)cc3C#N)c(C#N)c1)C2=O (repeat unit),331.00 °C
23,*c1ccc2c(c1)C(=O)N(c1ccc(-c3ccc(N4C(=O)c5ccc(C(*)(C(F)(F)F)C(F)(F)F)cc5C4=O)cc3-c3cc(C(F)(F)F)cc(C(F)(F)F)c3)c(-c3cc(C(F)(F)F)cc(C(F)(F)F)c3)c1)C2=O (repeat unit),263.00 °C
24,*Oc1cccc(C(C)(C)c2ccc(Oc3ccc4c(c3)C(=O)N(c3ccc(Oc5cccc(Oc6ccc(N7C(=O)c8ccc(*)cc8C7=O)cc6)c5)cc3)C4=O)cc2)c1 (repeat unit),178.00 °C

# Continued, values first:
row,glass transition temperature,SMILES
1,384.00 °C,*C(=O)c1ccc2c(c1)C(=O)N(c1ccc(C)c(N3C(=O)c4ccc(*)cc4C3=O)c1C)C2=O (repeat unit)
2,252.00 °C,*Oc1cccc(C(=O)c2ccc(Oc3cccc4c3C(=O)N(c3ccc(Oc5ccc(N6C(=O)c7cccc(*)c7C6=O)cc5)cc3)C4=O)cc2)c1 (repeat unit)
3,189.00 °C,*c1ccc2c(c1)C(=O)N(c1ccc(OCC(F)(F)C(F)(F)C(F)(F)C(F)(F)C(F)(F)C(F)(F)C(F)(F)C(F)(F)C(F)(F)C(F)(F)F)c(N3C(=O)c4ccc(C(*)(C(F)(F)F)C(F)(F)F)cc4C3=O)c1)C2=O (repeat unit)
4,325.00 °C,*c1ccc2c(c1)C(=O)N(c1ccc(-c3ccc(N4C(=O)c5ccc(C(*)(C(F)(F)F)C(F)(F)F)cc5C4=O)cc3C)c(C)c1)C2=O (repeat unit)
5,321.70 °C,*c1ccc2c(c1)C(=O)N(c1cc(C(F)(F)F)cc(N3C(=O)c4ccc(C(*)(C(F)(F)F)C(F)(F)F)cc4C3=O)c1OC(c1c(F)c(F)c(F)c(F)c1F)c1c(F)c(F)c(F)c(F)c1F)C2=O (repeat unit)
6,363.00 °C,*c1ccc(-c2ccc(N3C(=O)c4cc5c(cc4C3=O)C(C(F)(F)F)(C(F)(F)F)c3cc4c(cc3O5)C(=O)N(*)C4=O)cc2OC(C)(F)F)c(OC(C)(F)F)c1 (repeat unit)
7,271.20 °C,*c1ccc2c(c1)C(=O)N(c1ccc(Oc3c(F)c(F)c(-c4c(F)c(F)c(Oc5ccc(N6C(=O)c7ccc(C(*)(C(F)(F)F)C(F)(F)F)cc7C6=O)cc5)c(F)c4F)c(F)c3F)cc1)C2=O (repeat unit)
8,202.00 °C,*Oc1cccc(C(C)(C)c2ccc(Oc3cccc4c3C(=O)N(c3ccc(Oc5cccc(Oc6ccc(N7C(=O)c8cccc(*)c8C7=O)cc6)c5)cc3)C4=O)cc2)c1 (repeat unit)
9,310.00 °C,*c1ccc2c(c1)C(=O)N(c1cc(N3C(=O)c4ccc(S(*)(=O)=O)cc4C3=O)cc(C(F)(F)F)c1)C2=O (repeat unit)
10,335.00 °C,*c1ccc(-c2ccc(N3C(=O)c4ccc(-c5ccc6c(c5)C(=O)N(*)C6=O)cc4C3=O)cc2OC(F)(F)F)c(OC(F)(F)F)c1 (repeat unit)
